From patent US8796256B2 (Janssen Pharmaceutica NV, priority 2010, dated 2014)
pEC50: −log10 of the molar value.

Target: T1, ERR1 (also known as ERR-α or ERR-1) (Homo sapiens, UniProt P11474)
T1 sequence (P11474 193-421 limits assumed): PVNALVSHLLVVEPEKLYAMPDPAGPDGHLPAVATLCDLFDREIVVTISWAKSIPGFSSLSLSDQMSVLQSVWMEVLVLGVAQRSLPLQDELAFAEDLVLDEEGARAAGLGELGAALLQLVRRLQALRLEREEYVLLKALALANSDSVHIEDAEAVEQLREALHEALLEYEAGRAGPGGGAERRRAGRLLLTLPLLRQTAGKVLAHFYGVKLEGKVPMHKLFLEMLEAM
Test: TR-FRET assay (disruption of co-activator peptide binding to ERR1 LBD)
Assay type: biochemical
Settings: 6 nM 6His-ERR1LBD, 6 nM GST-SRC-2 peptide; average of 3 independent experiments
Summary of the method: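 Homogeneous TR-FRET measuring displacement of GST-hSRC2 co-activator peptide (6 nM) from His-tagged ERR1 LBD (6 nM), detected with α-GST Eu cryptate (30 nM) and α-His-XL665 (7.5 nM). Buffer 25 mM Tris pH 8, 2.5 mM Hepes, 20 mM KCl, 1 mM DTT, 0.05 mg/mL delipidated BSA; equilibration 4-18 h at 25° C. Hyperbolic dose-response fit, mean of 3 experiments.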

Row | SMILES | pEC50
1 | CN1CCO[C@H](CN2C(=O)S/C(=C\c3ccc4c(cnn4Cc4ccc(Cl)cc4C(F)(F)F)c3)C2=O)C1 [Compound 192, (5Z)-5-({1-[4-Chloro-2-(trifluoromethyl)benzyl]-1H-indazol-5-yl}methylidene)-3-{[(2S)-4-methylmorpholin-2-yl]methyl}-1,3-thiazolidine-2,4-dione] | 7.35
2 | CN1C[C@H](F)C[C@H]1CN1C(=O)S/C(=C\c2ccc3c(cnn3Cc3ccc(Cl)cc3C(F)(F)F)c2)C1=O [Compound 193, (5Z)-5-({1-[4-Chloro-2-(trifluoromethyl)benzyl]-1H-indazol-5-yl}methylidene)-3-{[(2S,4R)-4-fluoro-1-methylpyrrolidin-2-yl]methyl}-1,3-thiazolidine-2,4-dione] | 6.80
3 | NC1(CN2C(=O)S/C(=C\c3ccc4c(cnn4Cc4ccc(Cl)cc4C(F)(F)F)c3)C2=O)CC1 [Compound 194, (5Z)-3-[(1-Aminocyclopropyl)methyl]-5-({1-[4-chloro-2-(trifluoromethyl)benzyl]-1H-indazol-5-yl}methylidene)-1,3-thiazolidine-2,4-dione] | 7.47
4 | O=C1S/C(=C\c2ccc3c(cnn3Cc3ccc(C(F)(F)F)cc3C(F)(F)F)c2)C(=O)N1C[C@@H]1CNCCO1 [Compound 195, (5Z)-5-({1-[2,4-Bis(trifluoromethyl)benzyl]-1H-indazol-5-yl}methylidene)-3-[(2S)-morpholin-2-ylmethyl]-1,3-thiazolidine-2,4-dione] | 7.21
5 | O=C1S/C(=C\c2ccc3c(cnn3Cc3ccc(C(F)(F)F)cc3C(F)(F)F)c2)C(=O)N1C[C@H]1COCCN1 [Compound 196, (5Z)-5-({1-[2,4-Bis(trifluoromethyl)benzyl]-1H-indazol-5-yl}methylidene)-3-[(3S)-morpholin-3-ylmethyl]-1,3-thiazolidine-2,4-dione] | 7.30
6 | O=C1S/C(=C\c2ccc3c(cnn3Cc3ccc(C(F)(F)F)cc3C(F)(F)F)c2)C(=O)N1C[C@@H]1COCCN1 [Compound 197, (5Z)-5-({1-[2,4-Bis(trifluoromethyl)benzyl]-1H-indazol-5-yl}methylidene)-3-[(3R)-morpholin-3-ylmethyl]-1,3-thiazolidine-2,4-dione] | 7.19
7 | O=C1S/C(=C\c2ccc3c(cnn3Cc3ccc(Cl)cc3C(F)(F)F)c2)C(=O)N1C[C@@H]1COCCN1 [Compound 198, (5Z)-5-({1-[4-Chloro-2-(trifluoromethyl)benzyl]-1H-indazol-5-yl}methylidene)-3-[(3R)-morpholin-3-ylmethyl]-1,3-thiazolidine-2,4-dione] | 7.51
8 | O=C1S/C(=C\c2ccc3c(cnn3Cc3ccc(Cl)cc3C(F)(F)F)c2)C(=O)N1C[C@@H]1CN2CCC[C@H]2CO1 [Compound 203, (5Z)-5-({1-[4-Chloro-2-(trifluoromethyl)benzyl]-1H-indazol-5-yl}methylidene)-3-[(3S,8aS)-hexahydro-1H-pyrrolo[2,1-c] [1,4]oxazin-3-ylmethyl]-1,3-thiazolidine-2,4-dione] | 7.28
9 | O=C1S/C(=C\c2ccc3c(cnn3Cc3ccc(Cl)cc3C(F)(F)F)c2)C(=O)N1C[C@H]1CN2CCOC[C@H]2CO1 [Compound 204, (5Z)-5-({1-[4-Chloro-2-(trifluoromethyl)benzyl]-1H-indazol-5-yl}methylidene)-3-[(3R,9aS)-hexahydro-1H-[1,4]oxazino[3,4-c] [1,4]oxazin-3-ylmethyl]-1,3-thiazolidine-2,4-dione] | 7.34
10 | O=C1S/C(=C\c2ccc3c(cnn3Cc3ccc(Cl)cc3C(F)(F)F)c2)C(=O)N1C[C@@H]1CN2CCOC[C@H]2CO1 [Compound 205, (5Z)-5-({1-[4-Chloro-2-(trifluoromethyl)benzyl]-1H-indazol-5-yl}methylidene)-3-[(3S,9aS)-hexahydro-1H-[1,4]oxazino[3,4-c] [1,4]oxazin-3-ylmethyl]-1,3-thiazolidine-2,4-dione] | 7.66
11 | O=C1S/C(=C\c2ccc3c(cnn3Cc3ccc(Cl)cc3C(F)(F)F)c2)C(=O)N1C[C@@H]1CCCN2CCCC[C@H]12 [Compound 206, (5Z)-5-({1-[4-Chloro-2-(trifluoromethyl)benzyl]-1H-indazol-5-yl}methylidene)-3-[(1S,9aR)-octahydro-2H-quinolizin-1-ylmethyl]-1,3-thiazolidine-2,4-dione] | 7.01
12 | O=C1S/C(=C\c2ccc3c(cnn3Cc3ccc(C(F)(F)F)cc3C(F)(F)F)c2)C(=O)N1C[C@@H]1CCCN2CCCC[C@H]12 [Compound 207, (5Z)-5-({1-[2,4-Bis(trifluoromethyl)benzyl]-1H-indazol-5-yl}methylidene)-3-[(1S,9aR)-octahydro-2H-quinolizin-1-ylmethyl]-1,3-thiazolidine-2,4-dione] | 6.72
13 | O=C1S/C(=C\c2ccc3c(cnn3Cc3ccc(C(F)(F)F)cc3C(F)(F)F)c2)C(=O)N1C[C@H]1CN2CCC[C@H]2CO1 [Compound 208, (5Z)-5-({1-[2,4-Bis(trifluoromethyl)benzyl]-1H-indazol-5-yl}methylidene)-3-[(3R,8aS)-hexahydro-1H-pyrrolo[2,1-c][1,4]oxazin-3-ylmethyl]-1,3-thiazolidine-2,4-dione] | 6.87
14 | COC(=O)C(C1CCOCC1)N1C(=O)S/C(=C\c2ccc3c(cnn3Cc3ccc(Cl)cc3C(F)(F)F)c2)C1=O (stereo not drawn) [Compound 209, Methyl [(5Z)-5-({1-[4-chloro-2-(trifluoromethyl)benzyl]-1H-indazol-5-yl}methylidene)-2,4-dioxo-1,3-thiazolidin-3-yl](tetrahydro-2H-pyran-4-yl)acetate] | 7.06
15 | COC(=O)[C@H](COC(C)(C)C)N1C(=O)S/C(=C\c2ccc3c(cnn3Cc3ccc(Cl)cc3C(F)(F)F)c2)C1=O [Compound 210, Methyl (2S)-3-tert-butoxy-2-[(5Z)-5-({1-[4-chloro-2-(trifluoromethyl)benzyl]-1H-indazol-5-yl}methylidene)-2,4-dioxo-1,3-thiazolidin-3-yl]propanoate] | 6.59
16 | CCOC(=O)C(Cc1ccccn1)N1C(=O)S/C(=C\c2ccc3c(cnn3Cc3ccc(Cl)cc3C(F)(F)F)c2)C1=O (stereo not drawn) [Compound 211, Ethyl 2-[(5Z)-5-({1-[4-chloro-2-(trifluoromethyl)benzyl]-1H-indazol-5-yl}methylidene)-2,4-dioxo-1,3-thiazolidin-3-yl]-3-pyridin-2-ylpropanoate] | 7.04
17 | COC(=O)[C@@H](COC(C)(C)C)N1C(=O)S/C(=C\c2ccc3c(cnn3Cc3ccc(Cl)cc3C(F)(F)F)c2)C1=O [Compound 212, Methyl (2R)-3-tert-butoxy-2-[(5Z)-5-({1-[4-chloro-2-(trifluoromethyl)benzyl]-1H-indazol-5-yl}methylidene)-2,4-dioxo-1,3-thiazolidin-3-yl]propanoate] | 6.60
18 | COC(=O)C1(N2C(=O)S/C(=C\c3ccc4c(cnn4Cc4ccc(Cl)cc4C(F)(F)F)c3)C2=O)CCN(C)CC1 [Compound 213, Methyl 4-[(5Z)-5-({1-[4-chloro-2-(trifluoromethyl)benzyl]-1H-indazol-5-yl}methylidene)-2,4-dioxo-1,3-thiazolidin-3-yl]-1-methylpiperidine-4-carboxylate] | 7.55
19 | COC(=O)C(Cc1cn(C)cn1)N1C(=O)S/C(=C\c2ccc3c(cnn3Cc3ccc(Cl)cc3C(F)(F)F)c2)C1=O (stereo not drawn) [Compound 214, Methyl 2-[(5Z)-5-({1-[4-chloro-2-(trifluoromethyl)benzyl]-1H-indazol-5-yl}methylidene)-2,4-dioxo-1,3-thiazolidin-3-yl]-3-(1-methyl-1H-imidazol-4-yl)propanoate] | 7.36
20 | COC(=O)C(C1CCN(C(=O)OC(C)(C)C)CC1)N1C(=O)S/C(=C\c2ccc3c(cnn3Cc3ccc(Cl)cc3C(F)(F)F)c2)C1=O (stereo not drawn) [Compound 215, tert-Butyl 4-{1-[(5Z)-5-({1-[4-chloro-2-(trifluoromethyl)benzyl]-1H-indazol-5-yl}methylidene)-2,4-dioxo-1,3-thiazolidin-3-yl]-2-methoxy-2-oxoethyl}piperidine-1-carboxylate] | 7.21
21 | O=C(O)C(Cc1ccccn1)N1C(=O)S/C(=C\c2ccc3c(cnn3Cc3ccc(Cl)cc3C(F)(F)F)c2)C1=O (stereo not drawn) [Compound 216, 2-[(5Z)-5-({1-[4-Chloro-2-(trifluoromethyl)benzyl]-1H-indazol-5-yl}methylidene)-2,4-dioxo-1,3-thiazolidin-3-yl]-3-pyridin-2-ylpropanoic acid] | 7.48
22 | COC(=O)C(Cc1cccnc1)N1C(=O)S/C(=C\c2ccc3c(cnn3Cc3ccc(Cl)cc3C(F)(F)F)c2)C1=O (stereo not drawn) [Compound 217, Methyl 2-[(5Z)-5-({1-[4-chloro-2-(trifluoromethyl)benzyl]-1H-indazol-5-yl}methylidene)-2,4-dioxo-1,3-thiazilidin-3-yl]-3-pyridin-3-ylpropanoate] | 7.39
23 | O=C1S/C(=C\c2ccc3c(cnn3Cc3ccc(Cl)cc3C(F)(F)F)c2)C(=O)N1C1(C(=O)O)CCCCC1 [Compound 218, 1-[(5Z)-5-({1-[4-Chloro-2-(trifluoromethyl)benzyl]-1H-indazol-5-yl}methylidene)-2,4-dioxo-1,3-thiazolidin-3-yl]cyclohexanecarboxylic acid] | 7.06
24 | O=C(O)C(C1CCOCC1)N1C(=O)S/C(=C\c2ccc3c(cnn3Cc3ccc(Cl)cc3C(F)(F)F)c2)C1=O (stereo not drawn) [Compound 219, [(5Z)-5-({1-[4-Chloro-2-(trifluoromethyl)benzyl]-1H-indazol-5-yl}methylidene)-2,4-dioxo-1,3-thiazolidin-3-yl](tetrahydro-2H-pyran-4-yl)acetic acid] | 7.38
